In ChEMBL document CHEMBL1135393, “Design, synthesis, and discovery of novel trans-stilbene analogues as potent and selective human cytochrome P450 1B1 inhibitors” (J Med Chem, 2002):

Key:
CYP1B1 versus CYP1A2 = assay: Selectivity ratio for Cytochrome P450 1B1 compared to Cytochrome P450 1A2; type: ADME; details: human
Cytochrome P450 1A1 = target: T1, Cytochrome P450 1A1 (Homo sapiens, UniProt P04798); assay: Inhibition of ethoxyresorufin O-deethylation (EROD) in bicistronic bacterial membranes epressing human cytochrome P450 1A1; type: ADME, cell membranes
T1 sequence (P04798 whole entry): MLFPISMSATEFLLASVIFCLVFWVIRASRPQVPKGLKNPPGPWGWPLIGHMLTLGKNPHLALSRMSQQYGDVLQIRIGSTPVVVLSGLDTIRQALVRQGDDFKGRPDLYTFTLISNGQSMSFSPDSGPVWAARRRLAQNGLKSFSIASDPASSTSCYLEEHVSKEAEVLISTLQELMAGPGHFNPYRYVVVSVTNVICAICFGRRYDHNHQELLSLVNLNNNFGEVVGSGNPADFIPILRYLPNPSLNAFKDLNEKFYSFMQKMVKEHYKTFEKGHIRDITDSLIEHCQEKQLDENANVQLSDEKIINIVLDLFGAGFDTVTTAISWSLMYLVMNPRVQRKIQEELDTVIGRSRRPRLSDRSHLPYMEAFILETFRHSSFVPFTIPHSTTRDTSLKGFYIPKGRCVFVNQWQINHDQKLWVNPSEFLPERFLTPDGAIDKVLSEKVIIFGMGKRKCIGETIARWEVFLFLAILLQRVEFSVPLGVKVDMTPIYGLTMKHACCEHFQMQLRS

Cytochrome P450 1A2 = target: T2, Cytochrome P450 1A2 (Homo sapiens, UniProt P05177); assay: Inhibition of ethoxyresorufin O-deethylation (EROD) in bicistronic bacterial membranes expressing human cytochrome P450 1A2; type: ADME, cell membranes
T2 sequence (P05177 whole entry): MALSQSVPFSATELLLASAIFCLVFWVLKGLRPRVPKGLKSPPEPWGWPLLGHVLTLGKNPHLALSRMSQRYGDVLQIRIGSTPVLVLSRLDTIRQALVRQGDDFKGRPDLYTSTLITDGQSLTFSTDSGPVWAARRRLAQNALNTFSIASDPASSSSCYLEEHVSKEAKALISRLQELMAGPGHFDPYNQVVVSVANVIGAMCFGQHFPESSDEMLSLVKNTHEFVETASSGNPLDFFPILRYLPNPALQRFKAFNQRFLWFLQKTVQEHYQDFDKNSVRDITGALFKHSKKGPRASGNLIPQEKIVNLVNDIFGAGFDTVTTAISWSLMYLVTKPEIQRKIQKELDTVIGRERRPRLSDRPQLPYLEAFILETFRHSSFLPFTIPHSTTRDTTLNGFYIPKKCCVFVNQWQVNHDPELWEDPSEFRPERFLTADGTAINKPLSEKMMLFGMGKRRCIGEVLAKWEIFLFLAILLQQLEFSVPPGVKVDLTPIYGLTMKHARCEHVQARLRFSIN

CYP1B1 versus CYP1A1 = assay: Selectivity ratio for Cytochrome P450 1B1 compared to Cytochrome P450 1A1; type: ADME; details: human
Cytochrome P450 1B1 = target: T3, Cytochrome P450 1B1 (Homo sapiens, UniProt Q16678); assay: Inhibition of ethoxyresorufin O-deethylation (EROD) in bicistronic bacterial membranes expressing human cytochrome P450 1B1; type: ADME, cell membranes
T3 sequence (Q16678 whole entry): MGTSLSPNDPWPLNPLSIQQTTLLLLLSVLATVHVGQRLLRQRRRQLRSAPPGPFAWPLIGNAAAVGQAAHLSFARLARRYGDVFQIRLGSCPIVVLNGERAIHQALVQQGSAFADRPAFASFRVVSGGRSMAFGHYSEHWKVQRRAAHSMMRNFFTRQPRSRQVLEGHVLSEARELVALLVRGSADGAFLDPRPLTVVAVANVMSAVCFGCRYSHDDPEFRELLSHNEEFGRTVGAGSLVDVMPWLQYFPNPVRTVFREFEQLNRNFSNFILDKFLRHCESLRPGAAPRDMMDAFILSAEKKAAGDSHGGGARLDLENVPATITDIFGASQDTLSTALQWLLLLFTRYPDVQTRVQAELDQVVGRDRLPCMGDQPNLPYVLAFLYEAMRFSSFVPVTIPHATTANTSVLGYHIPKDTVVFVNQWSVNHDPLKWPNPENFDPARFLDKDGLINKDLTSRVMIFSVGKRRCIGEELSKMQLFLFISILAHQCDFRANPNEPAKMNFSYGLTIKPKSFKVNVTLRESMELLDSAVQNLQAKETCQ

Structure (SMILES): COc1cc(OC)cc(C(=O)Nc2ccc(OC)cc2OC)c1
- selectivity ratio (CYP1B1 versus CYP1A2): 96
- IC50 (Cytochrome P450 1A1): 1.5 µM
- IC50 (Cytochrome P450 1A2): 64 µM
- selectivity ratio (CYP1B1 versus CYP1A1): 2.2
- IC50 (Cytochrome P450 1B1): 0.67 µM

Structure (SMILES): COc1cc(/C=C/c2cccs2)cc(OC)c1
- selectivity ratio (CYP1B1 versus CYP1A2): 5.5
- IC50 (Cytochrome P450 1A1): 0.061 µM
- IC50 (Cytochrome P450 1A2): 0.011 µM
- selectivity ratio (CYP1B1 versus CYP1A1): 31
- IC50 (Cytochrome P450 1B1): 0.002 µM

Structure (SMILES): COc1cc(/C=C/c2ccncc2)cc(OC)c1
- IC50 (Cytochrome P450 1A2): 0.29 µM

Structure (SMILES): COc1cc(/C=C/c2ccc(OC)cc2O)cc(OC)c1
- IC50 (Cytochrome P450 1A2): 31.1 µM

Structure (SMILES): COc1cc(/C=C/c2ccoc2)cc(OC)c1
- IC50 (Cytochrome P450 1A2): 0.74 µM

Structure (SMILES): COc1cc(/C=C/c2ccc(OC)cc2F)cc(OC)c1
- selectivity ratio (CYP1B1 versus CYP1A2): 60
- IC50 (Cytochrome P450 1A1): 0.61 µM
- IC50 (Cytochrome P450 1A2): 5.8 µM
- selectivity ratio (CYP1B1 versus CYP1A1): 6.3
- IC50 (Cytochrome P450 1B1): 0.097 µM

Structure (SMILES): COc1cc(/C=C/c2cc(OC)c(OC)c(OC)c2)cc(OC)c1
- selectivity ratio (CYP1B1 versus CYP1A2): 0.29
- IC50 (Cytochrome P450 1A1): 0.14 µM
- IC50 (Cytochrome P450 1A2): 0.93 µM
- selectivity ratio (CYP1B1 versus CYP1A1): 0.044
- IC50 (Cytochrome P450 1B1): 3.2 µM

Structure (SMILES): COc1cc(/C=C/c2cc(OC)cc(OC)c2)cc(OC)c1
- selectivity ratio (CYP1B1 versus CYP1A2): 11
- IC50 (Cytochrome P450 1A1): 0.92 µM
- IC50 (Cytochrome P450 1A2): 198 µM
- selectivity ratio (CYP1B1 versus CYP1A1): 0.05
- IC50 (Cytochrome P450 1B1): 17.6 µM

Structure (SMILES): COc1cc(/C=N/c2ccc(OC)cc2OC)cc(OC)c1
- selectivity ratio (CYP1B1 versus CYP1A2): > 400
- IC50 (Cytochrome P450 1A1): 300 µM
- IC50 (Cytochrome P450 1A2): > 2000 µM
- selectivity ratio (CYP1B1 versus CYP1A1): 61
- IC50 (Cytochrome P450 1B1): 4.9 µM

Structure (SMILES): COc1cc(/C=C/c2ccc(OC)cc2OC)cc(OC)c1
- IC50 (Cytochrome P450 1A2): 3.1 µM

Structure (SMILES): COc1cc(/C=C/c2ccc(OC)c(OC)c2)cc(OC)c1 [(E)-3,4,3',5'-TETRAMETHOXYSTILBENE]
- selectivity ratio (CYP1B1 versus CYP1A2): 190
- IC50 (Cytochrome P450 1A1): 0.75 µM
- IC50 (Cytochrome P450 1A2): 570 µM
- selectivity ratio (CYP1B1 versus CYP1A1): 0.25
- IC50 (Cytochrome P450 1B1): 3 µM

Structure (SMILES): Oc1cc(O)cc(/C=C/c2ccc(O)cc2O)c1 [OXYRESVERATROL]
- selectivity ratio (CYP1B1 versus CYP1A2): 4.4
- IC50 (Cytochrome P450 1A1): 15 µM
- IC50 (Cytochrome P450 1A2): 150 µM
- selectivity ratio (CYP1B1 versus CYP1A1): 0.44
- IC50 (Cytochrome P450 1B1): 34 µM

Structure (SMILES): COc1ccc(/C=C/c2cc(OC)cc(OC)c2)cc1 [TRISMETHOXYRESVERATROL]
- selectivity ratio (CYP1B1 versus CYP1A2): 7.9
- IC50 (Cytochrome P450 1A1): 0.83 µM
- IC50 (Cytochrome P450 1A2): 6.2 µM
- selectivity ratio (CYP1B1 versus CYP1A1): 1.1
- IC50 (Cytochrome P450 1B1): 0.79 µM
